Measured values published in publication PMC7932537, “Quantitative profiling of protease specificity” (PLoS Computational Biology, 2021).

Key:
[1] = test system: MMP-9; assay: Substrate phage display with NGS: relative probability (RP) of P3-P1' tetramer clusters; format: biochemical, human; conditions: MMP9; RP of the substrate's P3-P1' tetramer, substrate phage display with NGS;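 also: ratio of tetramer probability after protease selection to that in naive phage library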
[2] = target: T1, MMP-2 (Homo sapiens, UniProt P08253); assay: K(obs) of individual phage substrates (set of 1369); format: biochemical; conditions: MMP2; individual phage substrate from the set of 1369 peptides; hyphen in the sequence marks the cleavage position
T1 sequence (P08253 110-660): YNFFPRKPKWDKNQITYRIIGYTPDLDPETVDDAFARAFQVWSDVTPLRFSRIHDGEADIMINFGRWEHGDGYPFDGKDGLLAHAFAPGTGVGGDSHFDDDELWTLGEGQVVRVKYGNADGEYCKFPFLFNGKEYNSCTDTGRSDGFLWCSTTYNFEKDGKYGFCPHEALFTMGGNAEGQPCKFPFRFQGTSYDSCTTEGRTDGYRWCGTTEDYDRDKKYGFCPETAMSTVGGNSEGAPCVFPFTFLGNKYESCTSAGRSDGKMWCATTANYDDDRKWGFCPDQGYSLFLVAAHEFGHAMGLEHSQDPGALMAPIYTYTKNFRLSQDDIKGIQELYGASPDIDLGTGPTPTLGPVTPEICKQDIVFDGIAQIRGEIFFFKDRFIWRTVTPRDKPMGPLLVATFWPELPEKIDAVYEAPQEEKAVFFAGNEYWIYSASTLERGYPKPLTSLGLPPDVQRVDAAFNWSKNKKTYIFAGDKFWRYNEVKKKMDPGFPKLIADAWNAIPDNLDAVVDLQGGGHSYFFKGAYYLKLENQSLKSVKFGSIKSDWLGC

[3] = target: MMP-9 (Homo sapiens, UniProt P14780); assay: as above; format: biochemical; conditions: MMP9; individual phage substrate of the set of 1369 peptides; dash in sequence marks cleavage position
Chain of MMP-9 (Homo sapiens, UniProt P14780) (P14780 94-707): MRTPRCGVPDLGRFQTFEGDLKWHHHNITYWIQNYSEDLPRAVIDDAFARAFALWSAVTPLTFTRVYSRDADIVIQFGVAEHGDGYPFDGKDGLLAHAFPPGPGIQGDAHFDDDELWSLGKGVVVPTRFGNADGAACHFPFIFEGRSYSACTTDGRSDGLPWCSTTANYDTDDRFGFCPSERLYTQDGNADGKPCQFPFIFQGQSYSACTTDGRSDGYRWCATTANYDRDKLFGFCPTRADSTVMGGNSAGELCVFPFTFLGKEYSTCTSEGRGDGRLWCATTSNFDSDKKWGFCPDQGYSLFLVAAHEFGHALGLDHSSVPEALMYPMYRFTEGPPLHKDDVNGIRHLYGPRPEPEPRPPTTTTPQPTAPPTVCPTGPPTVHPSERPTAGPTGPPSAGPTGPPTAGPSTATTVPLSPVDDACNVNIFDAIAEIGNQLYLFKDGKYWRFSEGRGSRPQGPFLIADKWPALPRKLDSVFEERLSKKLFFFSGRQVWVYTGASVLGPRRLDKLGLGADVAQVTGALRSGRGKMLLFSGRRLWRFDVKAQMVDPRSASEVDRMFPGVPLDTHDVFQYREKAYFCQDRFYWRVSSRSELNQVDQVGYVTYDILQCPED

Row | Kobs [2] [M⁻¹ s⁻¹] | Kobs [3] [M⁻¹ s⁻¹] | Substance | relative probability (RP) [1]
1 | 912.511 | 1283.43 | FDVWM-LTASG | 17.1619
2 | 1071.29 | 6396.07 | TGPKL-ITASG | 25.2703
3 | 12792.1 | 12792.1 | GTPRN-IKTAS | 46.5688
4 | 4922.1 | 12792.1 | ILVWN-YTASG | 30.7196
5 | 12792.1 | 12792.1 | GQPRA-IRTAS | 47.8426
6 | 12792.1 | 3850.82 | GRPSP-FWTAS | 37.3217
7 | 1071.29 | 12792.1 | TVPWS-VTASG | 31.0554
8 | 1418.96 | 2038.8 | GSAIP-LWTAS | 32.5296
9 | 12792.1 | 12792.1 | HAPSL-YTASG | 23.6706
10 | 12792.1 | 7015.91 | SGPVS-MRYTA | 41.2029
11 | 12792.1 | 12792.1 | GEPLF-LRTAS | 38.6603
12 | 12792.1 | 12792.1 | VKPSK-LTASG | 38.9571
13 | 12792.1 | 12792.1 | GWPSE-LRTAS | 41.3266
14 | 12792.1 | 12792.1 | RGPSS-YTASG | 41.6306
15 | 0 | 2837.92 | SGPLK-ITRTA | 38.9391
16 | 12792.1 | 12792.1 | IFARS-LTASG | 26.1862
17 | 9740.44 | 5889.62 | SDVRF-LTASG | 26.3541
18 | 12792.1 | 12792.1 | RLPIN-LTASG | 44.8884
19 | 6688.74 | 0 | SGISA-LRKTA | 16.3812
20 | 12792.1 | 12792.1 | ERPFF-LTASG | 36.9909
21 | 799.117 | 1373.05 | GSGRG-LWSET | 11.4523
22 | 12792.1 | 12792.1 | IAPAK-LTASG | 39.5582
23 | 4335.13 | 7815.03 | SGVKG-MYSTA | 17.5008
24 | 27.918 | 8941.32 | HVPRQ-VTASG | 25.107

Row | Kobs [2] [M⁻¹ s⁻¹] | Kobs [3] [M⁻¹ s⁻¹] | Substance | relative probability (RP) [1]
25 | 12792.1 | 0 | FYFSN-LTASG | 0.7913
26 | 12792.1 | 12792.1 | HTVRG-LTASG | 42.3063
27 | 8321.48 | 386.839 | VLFGA-LTASG | 2.95
28 | 12792.1 | 551.253 | HVVAQ-LTASG | 6.994
29 | 12792.1 | 12792.1 | TPPVE-LTASG | 35.1044
30 | 12792.1 | 10866.7 | WYPSK-LTASG | 38.9571
31 | 12792.1 | 12792.1 | RTPKG-LTASG | 48.4124
32 | 12792.1 | 12792.1 | WQVRY-LTASG | 32.3577
33 | 5269.78 | 799.117 | SGPSA-LDATA | 47.6113
34 | 1418.96 | 7815.03 | SGPRG-MKTTA | 47.6962
35 | 12792.1 | 10866.7 | CAPTA-LTASG | 40.9775
36 | 2038.8 | 6688.74 | QRWFA-LTASG | 14.7831
37 | 12792.1 | 12792.1 | TPPSS-LTASG | 46.2595
38 | 12792.1 | 12792.1 | SGPRN-LAVTA | 48.2698
39 | 12792.1 | 1870.4 | LQIGH-LTASG | 14.7862
40 | 12792.1 | 12792.1 | GSPRN-LRTAS | 48.2698
41 | 12792.1 | 12792.1 | GMPRA-YRTAS | 46.2238
42 | 7386.83 | 27.918 | KYHAW-MTASG | 0.08727
43 | 5667.28 | 12792.1 | SGPRL-YIGTA | 32.3351
44 | 2615.58 | 2615.58 | FVVRL-LTASG | 11.0035
45 | 12792.1 | 1030.73 | VQLAY-FTASG | 0.5079
46 | 12792.1 | 1239.69 | YSTLR-TASGA | 0
47 | 7386.83 | 2761.81 | GMVRG-VTASG | 13.8249
48 | 12792.1 | 12792.1 | MSPRK-FTASG | 2.647

Row | Kobs [2] [M⁻¹ s⁻¹] | Kobs [3] [M⁻¹ s⁻¹] | Substance | relative probability (RP) [1]
49 | 12792.1 | 4922.1 | RVVAN-LTASG | 32.1971
50 | 12792.1 | 2916.17 | FHPSR-FTASG | 21.0555
51 | 12792.1 | 12792.1 | SRPRT-LTASG | 42.2705
52 | 12792.1 | 690.17 | TVLGN-LTASG | 10.3813
53 | 12792.1 | 12792.1 | GYPAG-LRTAS | 47.2274
54 | 8941.32 | 912.511 | VDVSF-LTASG | 1.252
55 | 12792.1 | 12792.1 | NAPNA-LTASG | 41.7392
56 | 12792.1 | 12792.1 | FIPFP-FTASG | 42.1583
57 | 12792.1 | 12792.1 | FLPRM-LTASG | 42.2884
58 | 12792.1 | 12792.1 | SGPRA-VSATA | 40.8515
59 | 3850.82 | 5667.28 | GRPAQ-MKTAS | 38.7952
60 | 12792.1 | 9740.44 | NSPSD-LTASG | 38.1321
61 | 2916.17 | 7015.91 | SGVLS-LQSTA | 27.5596
62 | 5889.62 | 7386.83 | SGPRF-LLDTA | 42.4535
63 | 12792.1 | 1071.29 | GAPAR-FTTAS | 21.7112
64 | 12792.1 | 12792.1 | MSPKG-VTASG | 38.7703
65 | 12792.1 | 12792.1 | DSPLS-LTASG | 48.1735
66 | 3741.87 | 9740.44 | GRPSA-MTTAS | 46.4881
67 | 5269.78 | 3079.62 | HTVRN-VTASG | 19.0254
68 | 12792.1 | 3344.37 | WSPSS-YTASG | 41.6306
69 | 12792.1 | 12792.1 | SQPMA-YTASG | 49.7335
70 | 5461.43 | 2476.66 | TIPSW-STASG | 17.8128
